Where “and” joins values, the source holds several entries; their conditions need not be identical. Identical values can stand only once.
Legend:
rRyR1 F4564Y = molecular target: T1, rRyR1 F4564Y (Oryctolagus cuniculus, UniProt P11716, F4564Y); assay: time-lapse [Ca2+]ER fluorescence assay, HEK293 cells; type: cell-based, rabbit; settings: n = 3
T1 construct: expressed in transfected cells

Sf RyR_I4734M/G4891E = Sf RyR_I4734M/G4891E (Spodoptera frugiperda, UniProt A0A4P8L6R5, G4891E/I4734M); assay: cell-based
rRyR1 R4563K = molecular target: T2, rRyR1 R4563K (Oryctolagus cuniculus, UniProt P11716, R4563K); assay: time-lapse [Ca2+]ER fluorescence assay, HEK293 cells; type: cell-based, rabbit; settings: n = 3
T2 construct: expressed in transfected cells

rRyR1 = rRyR1 (Oryctolagus cuniculus, UniProt P11716); assay: as above; type: cell-based, rabbit
Spodoptera frugiperda = tested on: Spodoptera frugiperda; design: method as in PMID 31157506; settings: in vivo; cited from earlier work
solubility comparison = type: physicochemical
chiRyR [1] = molecular target: T3, chiRyR (Oryctolagus cuniculus, UniProt P11716, C4657I/F4564Y/L4792S/R4563K); assay: cell-based; design: species or system rabbit
[2] = tested on: Drosophila melanogaster RyR G4915E; assay: Bioassay of gene-edited Drosophila melanogaster (feeding, mortality after 24 h); type: in vivo; settings: for death rate: 24 h
Sf RyR = Sf RyR (Spodoptera frugiperda, UniProt A0A4P8L6R5); assay: time-lapse [Ca2+]ER fluorescence assay, HEK293 cells; type: cell-based
[3] = tested on: Drosophila melanogaster RyR M4758I; assay: Bioassay of gene-edited Drosophila melanogaster (feeding, mortality after 24 h); type: in vivo; settings: for death rate: 24 h
chiRyR [4] = molecular target: T3, chiRyR; assay: biochemical; type: biochemical, rabbit
rRyR1 L4792S = molecular target: T4, rRyR1 L4792S (Oryctolagus cuniculus, UniProt P11716, L4792S); assay: time-lapse [Ca2+]ER fluorescence assay, HEK293 cells; type: cell-based, rabbit; settings: n = 3
T4 construct: expressed in transfected cells

rRyR1 C4657I = molecular target: T5, rRyR1 C4657I (Oryctolagus cuniculus, UniProt P11716, C4657I); assay: as above; type: cell-based, rabbit; settings: n = 3
T5 construct: expressed in transfected cells

chiRyR-I4657M/G4819E [5] = molecular target: T6, chiRyR-I4657M/G4819E (Oryctolagus cuniculus, UniProt P11716, C4657M/F4564Y/G4819E/L4792S/R4563K); assay: biochemical; type: biochemical, rabbit
chiRyR-I4657M/G4819E [6] = molecular target: T6, chiRyR-I4657M/G4819E; assay: cell-based; design: species or system rabbit

Question: Which EC50 (rRyR1 F4564Y) does the source give for `CNC(=O)c1cc(Cl)cc(C)c1NC(=O)c1cc(Br)nn1-c1ncccc1Cl` [CHL, chlorantraniliprole] here?
Answer: 556 nM

Question: What about the EC50 (Sf RyR_I4734M/G4891E) of the same compound?
Answer: 9100 nM

Question: What about the F/F0 (Sf RyR_I4734M/G4891E; CHL 0.1 uM) of the same compound?
Answer: 0.9609 and 0.9591 and 1.0034

Question: And the F/F0 (Sf RyR_I4734M/G4891E; CHL 1 uM)?
Answer: 0.987 and 0.977 and 0.9858

Question: What about the F/F0 (Sf RyR_I4734M/G4891E; CHL 10 uM) of the same compound?
Answer: 0.5363 and 0.6213 and 0.7359

Question: And the F/F0 (Sf RyR_I4734M/G4891E; CHL 50 uM)?
Answer: 0.3469 and 0.3845 and 0.4143

Question: And the F/F0 (Sf RyR_I4734M/G4891E; CHL 100 uM)?
Answer: 0.3178 and 0.3119 and 0.3455

Question: What about the F/F0 (Sf RyR_I4734M/G4891E; CHL 150 uM) of the same compound?
Answer: 0.3313 and 0.3179 and 0.3624

Question: And the F/F0 (Sf RyR_I4734M/G4891E; CHL 200 uM)?
Answer: 0.3347 and 0.3244 and 0.3692

Question: And the EC50 (rRyR1 R4563K)?
Answer: 62.6 nM

Question: What about the EC50 (rRyR1) of the same compound?
Answer: 4900 nM

Question: What about the fold decreased sensitivity (Spodoptera frugiperda) of the same compound?
Answer: 225 fold

Question: What about the relative solubility (solubility comparison) of the same compound?
Answer: more soluble than TET

Question: And the EC50 (chiRyR [1])?
Answer: 1.6 nM

Question: What about the F/F0 (chiRyR [1]; CHL 1e-5 uM) of the same compound?
Answer: 0.9477 and 0.9176 and 0.9126

Question: And the F/F0 (chiRyR [1]; CHL 2.5e-5 uM)?
Answer: 0.9199 and 0.9229 and 0.931

Question: And the F/F0 (chiRyR [1]; CHL 5e-5 uM)?
Answer: 0.8883 and 0.929 and 0.9092

Question: What about the F/F0 (chiRyR [1]; CHL 0.0001 uM) of the same compound?
Answer: 0.9049 and 0.9411 and 0.8175

Question: What about the F/F0 (chiRyR [1]; CHL 0.00025 uM) of the same compound?
Answer: 0.8945 and 0.8973 and 0.8398

Question: And the F/F0 (chiRyR [1]; CHL 0.0005 uM)?
Answer: 0.6917 and 0.6365 and 0.6304

Question: What about the F/F0 (chiRyR [1]; CHL 0.0025 uM) of the same compound?
Answer: 0.5122 and 0.4849 and 0.4622

Question: And the F/F0 (chiRyR [1]; CHL 0.005 uM)?
Answer: 0.6454 and 0.5393 and 0.4867

Question: What about the F/F0 (chiRyR [1]; CHL 0.01 uM) of the same compound?
Answer: 0.4912 and 0.5046 and 0.4772

Question: What about the F/F0 (chiRyR [1]; CHL 0.025 uM) of the same compound?
Answer: 0.5158 and 0.4751 and 0.4992

Question: What about the F/F0 (chiRyR [1]; CHL 0.05 uM) of the same compound?
Answer: 0.5374 and 0.5173 and 0.549

Question: And the F/F0 (chiRyR [1]; CHL 0.1 uM)?
Answer: 0.4915 and 0.5257 and 0.4507

Question: What about the F/F0 (chiRyR [1]; CHL 1 uM) of the same compound?
Answer: 0.5356 and 0.5199 and 0.5646

Question: What about the F/F0 (chiRyR [1]; CHL 3 uM) of the same compound?
Answer: 0.5195 and 0.4435 and 0.4631

Question: And the F/F0 (chiRyR [1]; CHL 10 uM)?
Answer: 0.5287 and 0.4905 and 0.48

Question: What about the F/F0 (chiRyR [1]; CHL 30 uM) of the same compound?
Answer: 0.5354 and 0.4682 and 0.4761

Question: What about the F/F0 (chiRyR [1]; CHL 50 uM) of the same compound?
Answer: 0.5799 and 0.4954 and 0.5274

Question: What about the LD50 ([2]; 24 h feeding, n = 30, heterozygous G4915E/G) of the same compound?
Answer: 1.6 mM

Question: What about the death rate ([2]; CHL 1.000 uM) of the same compound?
Answer: 0%

Question: And the death rate ([2]; CHL 3.333 uM)?
Answer: 0%

Question: What about the death rate ([2]; CHL 10.000 uM) of the same compound?
Answer: 0% and 10%

Question: And the death rate ([2]; CHL 33.333 uM)?
Answer: 10%

Question: And the death rate ([2]; CHL 100.000 uM)?
Answer: 10% and 20%

Question: And the F/F0 (Sf RyR; CHL 1e-5 uM)?
Answer: 0.9606 and 0.9752 and 0.9813

Question: And the F/F0 (Sf RyR; CHL 0.001 uM)?
Answer: 1.004 and 1.002 and 1.001

Question: What about the F/F0 (Sf RyR; CHL 0.005 uM) of the same compound?
Answer: 0.7229 and 0.7431 and 0.7294

Question: And the F/F0 (Sf RyR; CHL 0.01 uM)?
Answer: 0.3097 and 0.3094 and 0.2868

Question: What about the F/F0 (Sf RyR; CHL 0.1 uM) of the same compound?
Answer: 0.2582 and 0.2663 and 0.2776

Question: What about the F/F0 (Sf RyR; CHL 0.5 uM) of the same compound?
Answer: 0.268 and 0.2944 and 0.2596

Question: And the F/F0 (Sf RyR; CHL 1 uM)?
Answer: 0.2734 and 0.2934 and 0.2867

Question: And the F/F0 (Sf RyR; CHL 10 uM)?
Answer: 0.2774 and 0.2809 and 0.2932

Question: And the F/F0 (Sf RyR; CHL 50 uM)?
Answer: 0.2939 and 0.2698 and 0.3129

Question: And the EC50 (Sf RyR; n = 3, read-out: EC50)?
Answer: 5.5 nM

Question: And the LD50 ([3]; 24 h feeding, n = 30)?
Answer: 127.9 nM

Question: And the death rate ([3]; CHL 0.010 uM)?
Answer: 0%

Question: And the death rate ([3]; CHL 0.033 uM)?
Answer: 0% and 10%

Question: And the death rate ([3]; CHL 0.100 uM)?
Answer: 60% and 40%

Question: What about the death rate ([3]; CHL 0.333 uM) of the same compound?
Answer: 80% and 70%

Question: What about the death rate ([3]; CHL 1.000 uM) of the same compound?
Answer: 100% and 90%

Question: And the death rate ([3]; CHL 3.333 uM)?
Answer: 100%

Question: And the death rate ([3]; CHL 10.000 uM)?
Answer: 100%

Question: And the EC50 (chiRyR [4])?
Answer: 1.7 ± 0.3 nM

Question: And the “[3H]ryanodine binding (B/Bmax)” value (chiRyR [4]; CHL 0.010 uM)?
Answer: 0.191 and 0.230 and 0.144 and 0.262

Question: What about the “[3H]ryanodine binding (B/Bmax)” value (chiRyR [4]; CHL 0.100 uM) of the same compound?
Answer: 0.168 and 0.180 and 0.215

Question: What about the “[3H]ryanodine binding (B/Bmax)” value (chiRyR [4]; CHL 1.000 uM) of the same compound?
Answer: 0.199 and 0.219 and 0.215 and 0.312

Question: And the “[3H]ryanodine binding (B/Bmax)” value (chiRyR [4]; CHL 10.000 uM)?
Answer: 0.246 and 0.234 and 0.250 and 0.215

Question: And the “[3H]ryanodine binding (B/Bmax)” value (chiRyR [4]; CHL 100.000 uM)?
Answer: 0.207 and 0.242 and 0.223 and 0.191

Question: What about the EC50 (rRyR1 L4792S) of the same compound?
Answer: 44.8 nM

Question: And the EC50 (rRyR1 C4657I)?
Answer: 167 nM

Question: What about the EC50 (chiRyR-I4657M/G4819E [5]) of the same compound?
Answer: 14700 ± 1600 nM

Question: What about the “[3H]ryanodine binding (B/Bmax)” value (chiRyR-I4657M/G4819E [5]; CHL 10.000 uM) of the same compound?
Answer: 0.114 and 0.077 and 0.068 and 0.062

Question: And the “[3H]ryanodine binding (B/Bmax)” value (chiRyR-I4657M/G4819E [5]; CHL 100.000 uM)?
Answer: 0.193 and 0.240 and 0.178 and 0.209

Question: And the F/F0 (chiRyR-I4657M/G4819E [6]; CHL 1e-5 uM)?
Answer: 0.8891 and 0.8803 and 0.8832

Question: And the F/F0 (chiRyR-I4657M/G4819E [6]; CHL 0.0001 uM)?
Answer: 0.8817 and 0.9289 and 0.9243

Question: And the F/F0 (chiRyR-I4657M/G4819E [6]; CHL 0.001 uM)?
Answer: 0.9674 and 0.9402 and 0.9553

Question: And the F/F0 (chiRyR-I4657M/G4819E [6]; CHL 0.005 uM)?
Answer: 0.9942 and 0.938 and 0.9411

Question: And the F/F0 (chiRyR-I4657M/G4819E [6]; CHL 0.01 uM)?
Answer: 0.9479 and 0.955 and 0.9174

Question: What about the F/F0 (chiRyR-I4657M/G4819E [6]; CHL 0.1 uM) of the same compound?
Answer: 0.9465 and 0.9355 and 0.9097

Question: And the F/F0 (chiRyR-I4657M/G4819E [6]; CHL 0.3 uM)?
Answer: 0.9306 and 0.9655 and 0.9439

Question: And the F/F0 (chiRyR-I4657M/G4819E [6]; CHL 0.5 uM)?
Answer: 0.9145 and 0.8971 and 0.9399

Question: And the F/F0 (chiRyR-I4657M/G4819E [6]; CHL 1 uM)?
Answer: 0.9091 and 0.8544 and 0.9005

Question: And the F/F0 (chiRyR-I4657M/G4819E [6]; CHL 3 uM)?
Answer: 0.8328 and 0.8713 and 0.8682

Question: What about the F/F0 (chiRyR-I4657M/G4819E [6]; CHL 10 uM) of the same compound?
Answer: 0.808 and 0.819 and 0.7565

Question: And the F/F0 (chiRyR-I4657M/G4819E [6]; CHL 30 uM)?
Answer: 0.7257 and 0.6335 and 0.5826

Question: What about the F/F0 (chiRyR-I4657M/G4819E [6]; CHL 50 uM) of the same compound?
Answer: 0.6512 and 0.5528 and 0.5088

Question: And the F/F0 (chiRyR-I4657M/G4819E [6]; CHL 100 uM)?
Answer: 0.5781 and 0.4912

Question: What about the F/F0 (chiRyR-I4657M/G4819E [6]; CHL 200 uM) of the same compound?
Answer: 0.6274 and 0.5179

Question: What about the F/F0 (chiRyR-I4657M/G4819E [6]; CHL 500 uM) of the same compound?
Answer: 0.5379 and 0.5182

Question: And the EC50 (chiRyR-I4657M/G4819E [6]; EC50, diamide insecticides, n = 3)?
Answer: 10300 nM and 14600 nM

Source: article PMC11491487 (Nature Communications, 2024)
